Test results from BindingDB's records for doi:10.1021/jm970021c (Warner-Lambert, 1997).

assay: Agonist activation of human dopamine receptor stimulating mitogenesis in Dopamine receptor D4-transfected CHO pro-5 cells using [3H]thymidine as radioligand

SMILES | EC50 [nM]
N#Cc1ccccc1N1CCN(CNC(=O)c2cccc(Cl)c2)CC1 [3-Chloro-N-[4-(2-cyano-phenyl)-piperazin-1-ylmethyl]-benzamide] | 5.3
N#Cc1ccccc1N1CCN(CNC(=O)c2ccc(Cl)cc2)CC1 [4-Chloro-N-[4-(2-cyano-phenyl)-piperazin-1-ylmethyl]-benzamide] | > 3.9
Cc1cccc(C(=O)NCN2CCN(c3ccccc3Cl)CC2)c1 [N-[4-(2-Chloro-phenyl)-piperazin-1-ylmethyl]-3-methyl-benzamide] | 16
O=C(NCN1CCN(c2ccccc2Cl)CC1)c1ccccc1 [N-[4-(2-Chloro-phenyl)-piperazin-1-ylmethyl]-benzamide] | 106
N#Cc1ccccc1N1CCN(CNC(=O)c2ccccc2)CC1 [N-[4-(2-Cyano-phenyl)-piperazin-1-ylmethyl]-benzamide] | 24

Further lines, results first:

EC50 [nM] | SMILES
15 | COc1ccccc1N1CCN(CNC(=O)c2cccc(Cl)c2)CC1 [3-Chloro-N-[4-(2-methoxy-phenyl)-piperazin-1-ylmethyl]-benzamide]
8.4 | O=C(NCN1CCN(c2ccccc2Cl)CC1)c1ccc(Cl)cc1 [4-Chloro-N-[4-(2-chloro-phenyl)-piperazin-1-ylmethyl]-benzamide]
8.4 | COc1ccccc1N1CCN(CNC(=O)c2ccc(Cl)cc2)CC1 [4-Chloro-N-[4-(2-methoxy-phenyl)-piperazin-1-ylmethyl]-benzamide]
218 | Cc1ccc(C(=O)NCN2CCN(c3ccccc3Cl)CC2)cc1 [N-[4-(2-Chloro-phenyl)-piperazin-1-ylmethyl]-4-methyl-benzamide]
1.2 | Cc1ccc(C(=O)NCN2CCN(c3ccccc3C#N)CC2)cc1 [N-[4-(2-Cyano-phenyl)-piperazin-1-ylmethyl]-4-methyl-benzamide]
13 | COc1ccccc1N1CCN(CNC(=O)c2cccc(C)c2)CC1 [N-[4-(2-Methoxy-phenyl)-piperazin-1-ylmethyl]-3-methyl-benzamide]
3.4 | COc1ccccc1N1CCN(CNC(=O)c2ccc(C)cc2)CC1 [N-[4-(2-Methoxy-phenyl)-piperazin-1-ylmethyl]-4-methyl-benzamide]
31 | COc1ccccc1N1CCN(CNC(=O)c2ccccc2)CC1 [N-[4-(2-Methoxy-phenyl)-piperazin-1-ylmethyl]-benzamide]
